In patent publication US20060264419A1 (priority 2003, published 2006):

How the values were obtained:
5-HT2A receptors = 5-HT2A receptors (Rattus norvegicus, UniProt P14842); assay: in-vitro affinity to 5-HT2A receptors, displacement of [3H]ketanserine (Example A1); format: binding; settings: read-out: HT2A IC50
From the text: The 5-HT2A receptors are exposed both to [^3H]ketanserine (a substance which is known for its affinity to the receptor) and also to the test compound. The decrease in the affinity of [^3H]ketanserine to the receptor is an indication of the affinity of the test substance to the 5-HT2A receptor.

5 HT2C receptor = target: T1, 5 HT2C receptor (Homo sapiens, UniProt P28335); assay: affinity to the 5 HT2C receptor; format: binding
T1 sequence (P28335 33-458): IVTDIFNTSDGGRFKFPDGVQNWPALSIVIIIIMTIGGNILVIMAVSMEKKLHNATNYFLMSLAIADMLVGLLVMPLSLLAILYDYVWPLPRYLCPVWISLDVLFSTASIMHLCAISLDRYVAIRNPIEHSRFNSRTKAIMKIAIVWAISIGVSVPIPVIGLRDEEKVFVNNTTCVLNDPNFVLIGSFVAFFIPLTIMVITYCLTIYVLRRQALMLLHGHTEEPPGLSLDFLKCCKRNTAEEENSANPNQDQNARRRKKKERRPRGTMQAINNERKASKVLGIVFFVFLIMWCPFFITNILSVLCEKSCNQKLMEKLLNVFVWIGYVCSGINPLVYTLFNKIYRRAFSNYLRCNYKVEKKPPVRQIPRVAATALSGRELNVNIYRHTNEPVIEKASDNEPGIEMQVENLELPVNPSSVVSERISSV

5-HT2A receptors, sequence (P14842 whole entry): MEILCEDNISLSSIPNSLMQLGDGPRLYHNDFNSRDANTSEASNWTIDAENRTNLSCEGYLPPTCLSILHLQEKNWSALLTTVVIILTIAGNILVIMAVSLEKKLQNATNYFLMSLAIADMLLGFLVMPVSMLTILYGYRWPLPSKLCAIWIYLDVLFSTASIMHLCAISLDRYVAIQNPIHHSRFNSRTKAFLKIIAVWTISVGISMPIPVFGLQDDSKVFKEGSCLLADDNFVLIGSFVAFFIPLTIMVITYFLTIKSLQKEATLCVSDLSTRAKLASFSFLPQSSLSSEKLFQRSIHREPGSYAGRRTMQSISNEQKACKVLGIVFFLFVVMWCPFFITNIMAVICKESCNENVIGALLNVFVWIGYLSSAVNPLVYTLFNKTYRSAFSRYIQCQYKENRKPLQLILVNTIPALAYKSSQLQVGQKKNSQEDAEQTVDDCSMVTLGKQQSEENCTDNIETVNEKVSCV

Compound	IC50 (5-HT2A receptors)	IC50 (5 HT2C receptor)
CN(CCO)Cc1cnn(-c2ccc(-c3ccccc3)cc2)c1-c1ccccc1F [Example 906, 2-{[1-Biphenyl-4-yl-5-(2-fluorophenyl)-1H-pyrazol-4-ylmethyl]methylamino}ethanol]	16 nM	1000 nM
CN1CCN(Cc2cnn(-c3ccc(-c4ccccc4F)cc3)c2-c2ccc(F)cc2)CC1 [Example 1013, 1-[1-(2′-Fluorobiphenyl-4-yl)-5-(4-fluoro-phenyl)-1H-pyrazol-4-ylmethyl]-4-methyl-piperazine]	210 nM	1000 nM
CN1CCN(CCc2cnn(-c3ccc(-c4ccc(F)cc4)cc3)c2-c2ccccc2F)CC1 [Example 921, 1-{2-[1-(4′-Fluorobiphenyl-4-yl)-5-(2-fluoro-phenyl)-1H-pyrazol-4-yl]ethyl}-4-methylpiperazine]	23.3 nM	730 nM
CN(C)CCN(C)Cc1cnn(-c2ccc(-c3ccc(F)cc3)cc2)c1-c1ccc(Cl)cc1 [Example 1024, N-[5-(4-Chlorophenyl)-1-(4′-fluoro-biphenyl-4-yl)-1H-pyrazol-4-ylmethyl]-N,N′,N′-trimethyl-ethane-1,2-diamine]	240 nM	1000 nM
CC(C)c1ccc(-c2ccc(-n3ncc(CN4CCN(C)CC4)c3-c3ccccc3F)cc2)cc1 [Example 958, 1-[5-(2-Fluorophenyl)-1-(4′-isopropylbiphenyl-4-yl)-1H-pyrazol-4-ylmethyl]-4-methyl-piperazine]	58.1 nM	830 nM
CN1CCN(Cc2cnn(-c3ccc(-c4ccc(F)c(F)c4)cc3)c2-c2ccccc2F)CC1 [Example 960, 1-[1-(3′,4′-Difluorobiphenyl-4-yl)-5-(2-fluoro-phenyl)-1H-pyrazol-4-ylmethyl]-4-methyl-piperazine]	60 nM	340 nM
O=C(c1ccc(F)cc1)C1CCN(Cc2cnn(-c3ccc(-c4ccc(F)cc4)cc3)c2-c2ccccc2Cl)CC1 [Example 1019, 1-{1-{5-(2-Chlorophenyl)-1-(4′-fluoro-biphenyl-4-yl)-1H-pyrazol-4-ylmethyl]piperidin-4-yl}-1-(4-fluorophenyl)methanone]	230 nM	40 nM
CC(C)(C)OC(=O)N1CCN(Cc2cnn(-c3ccc(C(F)(F)F)cc3)c2-c2ccccc2F)CC1 [Example 896, tert-Butyl 4-[5-(2-fluorophenyl)-1-(4-trifluoro-methylphenyl)-1H-pyrazol-4-ylmethyl]-piperazine-1-carboxylate]	8 nM	43000 nM
Fc1ccccc1-c1c(CNCc2nc3ccccc3[nH]2)cnn1-c1ccc(-c2ccccc2)cc1 [Example 969, (1H-Benzoimidazol-2-ylmethyl)-[1-biphenyl-4-yl-5-(2-fluorophenyl)-1H-pyrazol-4-ylmethyl]-amine]	76 nM	1000 nM
OC1CCN(Cc2cnn(-c3ccc(-c4ccccc4)cc3)c2-c2ccccc2F)C1 (stereo not shown) [Example 904, 1-[1-Biphenyl-4-yl-5-(2-fluorophenyl)-1H-pyrazol-4-ylmethyl]pyrrolidin-3-ol]	14 nM	2000 nM
CN1CCN(Cc2cnn(-c3ccc(-c4ccc(F)cc4)cc3)c2-c2ccccc2Cl)CC1 [Example 965, 1-[5-(2-Chlorophenyl)-1-(4′-fluoro-biphenyl-4-yl)-1H-pyrazol-4-ylmethyl]-4-methylpiperazine]	72 nM	600 nM
CCN1CCN(Cc2cnn(-c3ccc(-c4ccccc4)cc3)c2-c2ccccc2F)CC1 [Example 927, 1-[1-Biphenyl-4-yl-5-(2-fluoro-phenyl)-1H-pyrazol-4-ylmethyl]-4-ethylpiperazine]	28 nM	1000 nM
COc1ccccc1-c1c(CN2CCN(C)CC2)cnn1-c1ccc(-c2ccsc2)cc1 [Example 1055, 1-[5-(2-Methoxyphenyl)-1-(4-thiophen-3-yl-phenyl)-1H-pyrazol-4-ylmethyl]-4-methyl-piperazine]	460 nM	300 nM
CN1CC2CC1CN2Cc1cnn(-c2ccc(-c3ccccc3)cc2)c1-c1ccccc1F (stereo not shown) [Example 977, 2-[1-Biphenyl-4-yl-5-(2-fluorophenyl)-1H-pyrazol-4-ylmethyl]-5-methyl-2,5-diazabicyclo-[2.2.1]heptane]	94 nM	680 nM
CN1CCN(NCc2cnn(-c3ccc(-c4ccccc4)cc3)c2-c2ccccc2F)CC1 [Example 903, [1-Biphenyl-4-yl-5-(2-fluorophenyl)-1H-pyrazol-4-ylmethyl]-(4-methylpiperazin-1-yl)amine]	14 nM	470 nM
Fc1ccccc1-c1c(CN2CCNCC2)cnn1-c1ccc(-c2ccccc2)cc1 [Example 924, 1-[1-Biphenyl-4-yl-5-(2-fluorophenyl)-1H-pyrazol-4-ylmethyl]piperazine]	26 nM	660 nM

Compound	IC50 (5-HT2A receptors)	IC50 (5 HT2C receptor)
O=S1(=O)CCN(Cc2cnn(-c3ccc(-c4ccccc4)cc3)c2-c2ccccc2F)CC1 [Example 945, 4-[1-Biphenyl-4-yl-5-(2-fluorophenyl)-1H-pyrazol-4-ylmethyl]thiomorpholine 1,1-dioxide]	43 nM	1000 nM
COc1cccc(-c2ccc(-n3ncc(CN4CCN(C)CC4)c3-c3ccccc3F)cc2)c1 [Example 930, 1-[5-(2-Fluorophenyl)-1-(3′-methoxy-biphenyl-4-yl)-1H-pyrazol-4-ylmethyl]-4-methyl-piperazine]	29 nM	690 nM
CN1CCN(Cc2cnn(-c3ccc(-c4ccccc4)cc3)c2-c2ccccc2F)CC1 [Example 926, 1-[1-Biphenyl-4-yl-5-(2-fluoro-phenyl)-1H-pyrazol-4-ylmethyl]-4-methylpiperazine]	27.3 nM	600 nM
CN1CCN(Cc2cnn(-c3ccc(-c4cc(F)ccc4F)cc3)c2-c2ccc(F)cc2)CC1 [Example 1021, 1-[1-(2′,5′-Difluorobiphenyl-4-yl)-5-(4-fluoro-phenyl)-1H-pyrazol-4-ylmethyl]-4-methyl-piperazine]	240 nM	1000 nM
CCN1CCCC1CNCc1cnn(-c2ccc(-c3ccccc3)cc2)c1-c1ccccc1F (stereo not shown) [Example 947, [1-Biphenyl-4-yl-5-(2-fluorophenyl)-1H-pyrazol-4-ylmethyl]-(1-ethyl-pyrrolidin-2-yl-methyl)amine]	46.9 nM	1000 nM
CN1CCN(Cc2cnn(-c3ccc(C(F)(F)F)cc3)c2-c2ccccc2F)CC1 [Example 990, 1-[5-(2-Fluorophenyl)-1-(4-trifluoro-methyl-phenyl)-1H-pyrazol-4-ylmethyl]-4-methyl-piperazine]	133 nM	490 nM
CN1CCN(Cc2cnn(-c3ccc(-c4ccsc4)cc3)c2-c2ccco2)CC1 [Example 891, 1-[5-Furan-2-yl-1-(4-thiophen-3-ylphenyl)-1H-pyrazol-4-ylmethyl]-4-methylpiperazine]	4.5 nM	210 nM
c1ccc(-c2ccc(-n3ncc(CNCc4ccncc4)c3-c3ccccc3)cc2)cc1 [Example 932, (1-Biphenyl-4-yl-5-phenyl-1H-pyrazol-4-yl-methyl)pyridin-4-ylmethylamine]	31 nM	1000 nM
CN1CCN(Cc2cnn(-c3ccc(-c4ccccc4)cn3)c2-c2ccccc2F)CC1 [Example 922, 1-[5-(2-Fluorophenyl)-1-(5-phenyl-pyridin-2-yl)-1H-pyrazol-4-ylmethyl]-4-methylpiperazine]	24 nM	660 nM
CN1CCN(Cc2cnn(-c3ccc(-c4ccccc4)cc3)c2-c2cccnc2)CC1 [Example 1035, 1-(1-Biphenyl-4-yl-5-pyridin-3-yl-1H-pyrazol-4-ylmethyl)-4-methylpiperazine]	290 nM	1000 nM
CN(C)CCN(C)Cc1cnn(-c2ccc(-c3ccccc3)cc2)c1-c1ccccc1F [Example 912, N-[1-Biphenyl-4-yl-5-(2-fluorophenyl)-1H-pyrazol-4-ylmethyl]-N,N′,N′-trimethylethane-1,2-diamine]	20 nM	920 nM
CCN(CC)Cc1cnn(-c2ccc(-c3ccccc3)cc2)c1-c1ccccc1F [Example 897, [1-Biphenyl-4-yl-5-(2-fluorophenyl)-1H-pyrazol-4-ylmethyl]diethylamine]	11 nM	1000 nM
Cc1ccc(-c2ccc(-n3ncc(CN4CCN(C)CC4)c3-c3ccccc3F)cc2)cc1 [Example 916, 1-[5-(2-Fluorophenyl)-1-(4′-methylbiphenyl-4-yl)-1H-pyrazol-4-ylmethyl]-4-methylpiperazine]	22 nM	960 nM
CN1CCN(Cc2cnn(-c3ccc(-c4ccccc4F)cc3)c2-c2ccccc2F)CC1 [Example 976, 1-[1-(2′-Fluorobiphenyl-4-yl)-5-(2-fluoro-phenyl)-1H-pyrazol-4-ylmethyl]-4-methyl-piperazine]	93 nM	371 nM
CN(C)Cc1cnn(-c2ccc(C(F)(F)F)cn2)c1-c1ccccc1F [Example 937, [5-(2-Fluorophenyl)-1-(5-trifluoro-methylpyridin-2-yl)-1H-pyrazol-4-ylmethyl]dimethylamine]	35 nM	1000 nM
c1ccc(-c2ccc(-n3ncc(CNCc4ccccn4)c3-c3ccccc3)cc2)cc1 [Example 918, (1-Biphenyl-4-yl-5-phenyl-1H-pyrazol-4-yl-methyl)pyridin-2-ylmethylamine]	23 nM	1000 nM
